Numbered stars: 1 amine (or outer) side, 2 acyl side, 3 side chain; on linkers, the order of the positions; unused ones are H or OH. Square brackets hold non-standard residues; d marks the D form. Side chains are listed from the residue outwards. Peptide text beside a SMILES is read from it. * marks the point of attachment. C20 diacid = O=C(O)CCCCCCCCCCCCCCCCCCC(=O)*; C18 diacid = O=C(O)CCCCCCCCCCCCCCCCC(=O)*; γGlu = O=C(O)[C@H](CCC(=O)[*:2])N[*:1]; αMeL = CC(C)C[C@](C)(N)C(=O)O; AEEA = NCCOCCOCC(=O)O; Aib = CC(C)(N)C(=O)O
What was measured:
[1] = biological target: human GLP-1 receptor (GLP-1R) (Homo sapiens, UniProt P43220); assay: cAMP pharmacological functional assay in presence of casein, hGLP-1R; format: cell-based; settings: HEK293 cells expressing hGLP-1R, 0.1% Casein, geometric mean; read-out: hGLP1R cAMP Rel EC50 nM (SEM, n)
Chain of human GLP-1 receptor (GLP-1R) (P43220 24-463): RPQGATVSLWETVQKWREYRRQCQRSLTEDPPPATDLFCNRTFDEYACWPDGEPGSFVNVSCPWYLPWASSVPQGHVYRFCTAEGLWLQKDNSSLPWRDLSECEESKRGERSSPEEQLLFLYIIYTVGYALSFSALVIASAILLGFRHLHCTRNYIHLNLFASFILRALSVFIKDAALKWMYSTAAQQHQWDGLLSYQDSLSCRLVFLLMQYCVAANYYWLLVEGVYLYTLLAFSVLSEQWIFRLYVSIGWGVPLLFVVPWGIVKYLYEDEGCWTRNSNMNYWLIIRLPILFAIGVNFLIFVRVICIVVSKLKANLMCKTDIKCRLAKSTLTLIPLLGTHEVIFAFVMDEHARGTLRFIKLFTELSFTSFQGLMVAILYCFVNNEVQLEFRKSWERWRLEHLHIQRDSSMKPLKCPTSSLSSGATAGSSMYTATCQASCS

[2] = biological target: T1, gastric inhibitory peptide receptor (GIPR) (Homo sapiens, UniProt P48546); assay: cAMP pharmacological functional assay in presence of casein, hGIPR; format: cell-based; settings: HEK293 cells expressing hGIPR, 0.1% Casein, geometric mean; read-out: hGIPR cAMP Rel EC50 nM (SEM, n)
T1 sequence (P48546 22-466): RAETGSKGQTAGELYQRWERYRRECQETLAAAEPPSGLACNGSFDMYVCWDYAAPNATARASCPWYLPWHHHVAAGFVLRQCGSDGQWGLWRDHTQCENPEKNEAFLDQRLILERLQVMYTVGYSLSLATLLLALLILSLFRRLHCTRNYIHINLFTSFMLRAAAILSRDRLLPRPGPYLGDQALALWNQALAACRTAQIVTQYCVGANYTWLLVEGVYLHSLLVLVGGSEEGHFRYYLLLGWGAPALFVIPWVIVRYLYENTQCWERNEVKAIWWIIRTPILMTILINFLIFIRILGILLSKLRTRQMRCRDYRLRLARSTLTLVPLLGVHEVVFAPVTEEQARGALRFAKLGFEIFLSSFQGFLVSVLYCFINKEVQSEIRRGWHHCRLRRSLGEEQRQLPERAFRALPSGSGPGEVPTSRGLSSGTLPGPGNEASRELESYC

human GIP receptor = biological target: T2, human GIP receptor (Homo sapiens, UniProt P48546); assay: [125I]-GIP binding (SPA), human GIP receptor; settings: read-out: hGIPR Ki, nM (SEM, n)
T2 construct: expressed in transfected cells; crude membranes
T2 sequence (P48546 22-466): T1 sequence (P48546 22-466)

human Gcg receptor = biological target: T3, human Gcg receptor (Homo sapiens, UniProt P47871); assay: [125I]-Glucagon binding (SPA), human Gcg receptor; settings: read-out: hGLcgR Ki, nM (SEM, n)
T3 construct: expressed in transfected cells; crude membranes
T3 sequence (P47871 26-477): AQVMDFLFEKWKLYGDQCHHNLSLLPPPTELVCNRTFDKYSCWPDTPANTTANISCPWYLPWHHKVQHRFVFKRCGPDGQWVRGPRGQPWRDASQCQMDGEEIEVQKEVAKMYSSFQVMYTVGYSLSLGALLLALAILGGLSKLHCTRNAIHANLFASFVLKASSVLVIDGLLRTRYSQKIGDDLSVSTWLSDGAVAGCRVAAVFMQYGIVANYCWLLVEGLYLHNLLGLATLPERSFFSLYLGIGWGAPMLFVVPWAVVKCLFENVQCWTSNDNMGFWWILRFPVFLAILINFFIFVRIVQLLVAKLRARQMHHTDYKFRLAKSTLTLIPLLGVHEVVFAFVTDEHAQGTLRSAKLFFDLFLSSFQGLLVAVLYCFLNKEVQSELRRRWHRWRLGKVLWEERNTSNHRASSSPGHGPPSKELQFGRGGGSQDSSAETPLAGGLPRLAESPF
Procedure, shortened: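 Cell pellets were lysed in hypotonic Tris buffer, pH 7.5, homogenized, and spun at low then high speed to give crude membranes. Ki was derived from the fitted IC50.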

human GLP-1R = human GLP-1R (Homo sapiens, UniProt P43220); assay: [125I]-GLP-1 binding (SPA), human GLP-1 receptor; parameters: expressed in transfected cells; crude membranes; settings: read-out: hGLP1R Ki, (nM) (SEM, n)
Chain of human GLP-1R (P43220 24-463): as the sequence (P43220 24-463) above
Procedure, shortened: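 Frozen cell pellets are lysed on ice in hypotonic Tris buffer, pH 7.5, homogenized, and centrifuged to a membrane pellet resuspended at about 1 to 3 mg/mL. Binding is then measured in HEPES-based buffer at pH 7.4, and curves are fitted to give IC50 and Ki.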

| SMILES | EC50 [1] | EC50 [2] | Ki (human GIP receptor) | Ki (human Gcg receptor) | Ki (human GLP-1R) |
| --- | --- | --- | --- | --- | --- |
| CC[C@H](C)[C@H](NC(=O)[C@H](CCCCN)NC(=O)[C@H](CC(=O)O)NC(=O)[C@H](CC(C)C)NC(=O)[C@H](CCCCNC(=O)COCCOCCNC(=O)COCCOCCNC(=O)CC[C@H](NC(=O)CCCCCCCCCCCCCCCCCCC(=O)O)C(=O)O)NC(=O)[C@@H](NC(=O)[C@H](CO)NC(=O)[C@H](Cc1ccc(O)cc1)NC(=O)[C@H](CC(=O)O)NC(=O)[C@H](CO)NC(=O)[C@@H](NC(=O)[C@H](Cc1ccccc1)NC(=O)[C@@H](NC(=O)CNC(=O)[C@H](CCC(=O)O)NC(=O)C(C)(C)NC(=O)[C@@H](N)Cc1ccc(O)cc1)[C@@H](C)O)[C@@H](C)O)[C@@H](C)CC)C(=O)N[C@@H](C)C(=O)N[C@@H](CCC(N)=O)C(=O)NC(C)(C)C(=O)N[C@@H](C)C(=O)N[C@@H](Cc1ccccc1)C(=O)N[C@H](C(=O)N[C@@H](CCC(=O)O)C(=O)N[C@@H](Cc1ccc(O)cc1)C(=O)N[C@@H](CC(C)C)C(=O)N[C@H](C(=O)N[C@@H](CCC(=O)O)C(=O)NCC(=O)NCC(=O)N1CCC[C@H]1C(=O)N[C@@H](CO)C(=O)N[C@@H](CO)C(=O)NCC(=O)N[C@@H](C)C(=O)N1CCC[C@H]1C(=O)N1CCC[C@H]1C(=O)N1CCC[C@H]1C(=O)N[C@@H](CO)C(N)=O)[C@@H](C)CC)[C@@H](C)CC [Example 26] (H-Y[Aib]EGTFTSDYSIK([AEEA-AEEA-γGlu-C20 diacid])LDKIAQ[Aib]AFIEYLIEGGPSSGAPPPS-NH2) | 0.293 nM | 0.251 nM | 0.176 nM | > 960 nM | 4.22 nM |
| CC[C@H](C)[C@H](NC(=O)[C@H](CC(C)C)NC(=O)[C@H](Cc1ccc(O)cc1)NC(=O)[C@H](CCC(=O)O)NC(=O)[C@@H](NC(=O)[C@H](Cc1ccccc1)NC(=O)[C@H](C)NC(=O)C(C)(C)NC(=O)[C@H](CCC(N)=O)NC(=O)[C@H](C)NC(=O)[C@H](CCCCNC(=O)COCCOCCNC(=O)COCCOCCNC(=O)CC[C@H](NC(=O)CCCCCCCCCCCCCCCCCCC(=O)O)C(=O)O)NC(=O)[C@H](CO)NC(=O)[C@H](CC(=O)O)NC(=O)[C@H](CC(C)C)NC(=O)[C@](C)(CC(C)C)NC(=O)[C@@H](NC(=O)[C@H](CO)NC(=O)[C@H](Cc1ccc(O)cc1)NC(=O)[C@H](CC(=O)O)NC(=O)[C@H](CO)NC(=O)[C@@H](NC(=O)[C@H](Cc1ccccc1)NC(=O)[C@@H](NC(=O)CNC(=O)[C@H](CCC(=O)O)NC(=O)C(C)(C)NC(=O)[C@@H](N)Cc1ccc(O)cc1)[C@@H](C)O)[C@@H](C)O)[C@@H](C)CC)[C@@H](C)CC)C(=O)N[C@@H](CCC(=O)O)C(=O)NCC(=O)NCC(N)=O [Example 64] (H-Y[Aib]EGTFTSDYSI[αMeL]LDSK([AEEA-AEEA-γGlu-C20 diacid])AQ[Aib]AFIEYLIEGG-NH2) | 0.172 nM | 0.0916 nM | 0.0866 nM | 260 nM | 4.86 nM |
| CC[C@H](C)[C@H](NC(=O)[C@H](CCCCN)NC(=O)[C@H](CC(=O)O)NC(=O)[C@H](CC(C)C)NC(=O)[C@H](CC(C)C)NC(=O)[C@@H](NC(=O)[C@H](CO)NC(=O)[C@H](Cc1ccc(O)cc1)NC(=O)[C@H](CC(=O)O)NC(=O)[C@H](CO)NC(=O)[C@@H](NC(=O)[C@H](Cc1ccccc1)NC(=O)[C@@H](NC(=O)CNC(=O)[C@H](CCC(=O)O)NC(=O)C(C)(C)NC(=O)[C@@H](N)Cc1ccc(O)cc1)[C@@H](C)O)[C@@H](C)O)[C@@H](C)CC)C(=O)N[C@@H](C)C(=O)N[C@@H](CCC(N)=O)C(=O)NC(C)(C)C(=O)N[C@@H](C)C(=O)N[C@@H](Cc1ccccc1)C(=O)N[C@H](C(=O)N[C@@H](CCC(=O)O)C(=O)N[C@@H](Cc1ccc(O)cc1)C(=O)N[C@@H](CC(C)C)C(=O)N[C@H](C(=O)N[C@@H](CCCCNC(=O)COCCOCCNC(=O)COCCOCCNC(=O)CC[C@H](NC(=O)CCCCCCCCCCCCCCCCCCC(=O)O)C(=O)O)C(=O)NCC(=O)NCC(=O)N1CCC[C@H]1C(=O)N[C@@H](CO)C(=O)N[C@@H](CO)C(=O)NCC(=O)N[C@@H](C)C(=O)N1CCC[C@H]1C(=O)N1CCC[C@H]1C(=O)N1CCC[C@H]1C(=O)N[C@@H](CO)C(N)=O)[C@@H](C)CC)[C@@H](C)CC [Example 37] (H-Y[Aib]EGTFTSDYSILLDKIAQ[Aib]AFIEYLIK([AEEA-AEEA-γGlu-C20 diacid])GGPSSGAPPPS-NH2) | 1.15 nM | 0.269 nM | 0.0523 nM | 255 nM | 3.84 nM |
| CC[C@H](C)[C@H](NC(=O)[C@H](CC(C)C)NC(=O)[C@H](Cc1ccc(O)cc1)NC(=O)[C@H](CCC(=O)O)NC(=O)[C@@H](NC(=O)[C@H](Cc1ccccc1)NC(=O)[C@H](Cc1c[nH]cn1)NC(=O)C(C)(C)NC(=O)[C@H](CCC(N)=O)NC(=O)[C@H](C)NC(=O)[C@H](CCCCNC(=O)COCCOCCNC(=O)COCCOCCNC(=O)CC[C@H](NC(=O)CCCCCCCCCCCCCCCCC(=O)O)C(=O)O)NC(=O)[C@H](CCCCN)NC(=O)[C@H](CC(=O)O)NC(=O)[C@H](CC(C)C)NC(=O)[C@H](CC(C)C)NC(=O)[C@@H](NC(=O)[C@H](CO)NC(=O)[C@H](Cc1ccc(O)cc1)NC(=O)[C@H](CC(=O)O)NC(=O)[C@H](CO)NC(=O)[C@@H](NC(=O)[C@H](Cc1ccccc1)NC(=O)[C@@H](NC(=O)CNC(=O)[C@H](CCC(=O)O)NC(=O)C(C)(C)NC(=O)[C@@H](N)Cc1ccc(O)cc1)[C@@H](C)O)[C@@H](C)O)[C@@H](C)CC)[C@@H](C)CC)C(=O)N[C@@H](CCC(=O)O)C(=O)NCC(=O)NCC(=O)N1CCC[C@H]1C(=O)N[C@@H](CO)C(=O)N[C@@H](CO)C(=O)NCC(N)=O [Example 322] (H-Y[Aib]EGTFTSDYSILLDKK([AEEA-AEEA-γGlu-C18 diacid])AQ[Aib]HFIEYLIEGGPSSG-NH2) | 0.711 nM | 0.146 nM | 0.175 nM | 1030 nM | 2.31 nM |
| CC[C@H](C)[C@H](NC(=O)[C@H](CCCCN)NC(=O)[C@H](CC(=O)O)NC(=O)[C@H](CC(C)C)NC(=O)[C@H](CC(C)C)NC(=O)[C@H](CCCCNC(=O)COCCOCCNC(=O)COCCOCCNC(=O)CC[C@H](NC(=O)CCCCCCCCCCCCCCCCCCC(=O)O)C(=O)O)NC(=O)[C@H](CO)NC(=O)[C@H](Cc1ccc(O)cc1)NC(=O)[C@H](CC(=O)O)NC(=O)[C@H](CO)NC(=O)[C@@H](NC(=O)[C@H](Cc1ccccc1)NC(=O)[C@@H](NC(=O)CNC(=O)[C@H](CCC(=O)O)NC(=O)C(C)(C)NC(=O)[C@@H](N)Cc1ccc(O)cc1)[C@@H](C)O)[C@@H](C)O)C(=O)N[C@@H](C)C(=O)N[C@@H](CCC(N)=O)C(=O)NC(C)(C)C(=O)N[C@@H](C)C(=O)N[C@@H](Cc1ccccc1)C(=O)N[C@H](C(=O)N[C@@H](CCC(=O)O)C(=O)N[C@@H](Cc1ccc(O)cc1)C(=O)N[C@@H](CC(C)C)C(=O)N[C@H](C(=O)N[C@@H](CCC(=O)O)C(=O)NCC(=O)NCC(=O)N1CCC[C@H]1C(=O)N[C@@H](CO)C(=O)N[C@@H](CO)C(=O)NCC(=O)N[C@@H](C)C(=O)N1CCC[C@H]1C(=O)N1CCC[C@H]1C(=O)N1CCC[C@H]1C(=O)N[C@@H](CO)C(N)=O)[C@@H](C)CC)[C@@H](C)CC [Example 25] (H-Y[Aib]EGTFTSDYSK([AEEA-AEEA-γGlu-C20 diacid])LLDKIAQ[Aib]AFIEYLIEGGPSSGAPPPS-NH2) | 0.356 nM | 0.23 nM | 0.179 nM | 81.1 nM | 4.8 nM |
